The EC50 is the concentration at which the effect is half-maximal.

The source made the active and inactive calls. The calls are words filed in the database; no cut-off is given here.

From ChEMBL document CHEMBL2429745, “Identification of a new class of glucokinase activators through structure-based design” (J Med Chem, 2013) come the findings set out here.

The first data set concerns Mus musculus. Put plainly: Toxicity in C57BL/6J mouse assessed as induction of hypoglycemia at 50 mg/kg, po administered 30 mins prior to glucose challenge measured over 2 hrs. Type of data set: organism-based. Details: dose 50 mg/kg, route oral. To be noted: in vivo.
On to `CC(C)c1csc(Nc2ncc(SCCn3ccnc3)cc2OCc2ccccc2)n1`, for which the Activity entry is “Non-toxic”.

Another data set relates to Rattus norvegicus. Briefly: Antidiabetic activity in high fat-fed Zucker diabetic fatty rat assessed as decrease in blood glucose AUC at 50 mg/kg, po after 21 days on high-fat diet measured for 2 hrs post dose by OGTT relative to control. Details: scale not given: the % may be the effect or the level left.
Conditions: not given
On to `N#C[C@@H]1CCCN1C(=O)CNC12CC3CC(CC(O)(C3)C1)C2` [VILDAGLIPTIN], for which the Activity is listed as 24%.

On to `CC(C)c1csc(Nc2ncc(SCCn3ccnc3)cc2OCc2ccccc2)n1`, for which the Activity worked out at 23%.

Another data set has as its system Mus musculus. Put plainly: Antidiabetic activity in C57BL/6J mouse assessed as reduction of glucose excursion at 50 mg/kg, po administered 30 mins prior to glucose challenge measured over 2 hrs by OGTT. Details: dose 50 mg/kg. Type of data set: functional, organism-based.
Conditions: not given
As to `CC(C)c1csc(Nc2ncc(SCCn3ccnc3)cc2OCc2ccccc2)n1`, the outcome was Active.

A further data set concerns the target T1, Hexokinase-4 (Homo sapiens, UniProt P35557).
T1 sequence (P35557 whole entry): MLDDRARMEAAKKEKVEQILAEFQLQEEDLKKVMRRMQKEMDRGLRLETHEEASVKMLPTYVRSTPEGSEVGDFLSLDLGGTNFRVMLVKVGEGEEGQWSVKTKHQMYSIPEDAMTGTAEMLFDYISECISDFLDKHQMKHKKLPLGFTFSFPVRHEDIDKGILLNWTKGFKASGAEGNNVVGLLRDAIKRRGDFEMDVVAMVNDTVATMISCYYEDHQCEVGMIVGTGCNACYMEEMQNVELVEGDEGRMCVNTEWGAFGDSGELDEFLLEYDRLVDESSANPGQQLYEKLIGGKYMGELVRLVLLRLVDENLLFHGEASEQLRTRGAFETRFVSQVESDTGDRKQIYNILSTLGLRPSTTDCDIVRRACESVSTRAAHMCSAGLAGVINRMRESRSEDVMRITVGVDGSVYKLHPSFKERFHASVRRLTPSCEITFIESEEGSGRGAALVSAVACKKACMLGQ
Briefly: Allosteric activation of human glucokinase using glucose as substrate measured every 10 secs for 5 mins.
Conditions: not given
`Cc1csc(Nc2ncc(SCCn3ccnc3)cc2OCc2ccccc2)n1` registered a concentration for a half-maximal effect (EC50) of 325 nM.

For the molecule `Cc1csc(Nc2ncccc2OCc2cccc(O)c2)n1`, the EC50 was 3440 nM.

`CC(C)c1csc(Nc2ncc(Br)cc2OCc2ccccc2)n1` registered a concentration for a half-maximal effect (EC50) of 240 nM.

Turning to `Cc1csc(Nc2ncc(SCc3ccccc3)cc2OCc2ccccc2)n1`, the EC50 turned out to be 235 nM.

Molecule `COc1cccc(COc2cccnc2Nc2nc(C)cs2)c1` displayed a half-maximal effective concentration (EC50) of 3220 nM.

Turning to `Cc1csc(Nc2ncc(SCc3ccccn3)cc2OCc2ccccc2)n1`, it took 77 nM to reach a half-maximal effect (EC50).

In turn, `Cc1csc(Nc2ncc(Sc3ccccn3)cc2OCc2ccccc2)n1` returned a concentration for a half-maximal effect (EC50) of 231 nM.

`Cc1csc(Nc2ncccc2OCc2ccccn2)n1` displayed a concentration giving a half-maximal response (EC50) of 12300 nM.

Consider `Cc1csc(Nc2ncc(Cl)cc2OCc2ccccc2)n1`, for which a half-maximal response (EC50) required 796 nM.

`Cc1csc(Nc2ncccc2OCc2cccnc2)n1` gave an EC50 of 7780 nM.

`Cc1csc(Nc2ncc(Br)cc2OCc2ccccc2)n1` gave an EC50 of 687 nM.

Regarding `Cc1csc(Nc2ncc(Sc3ccccc3)cc2OCc2ccccc2)n1`, the response was half-maximal at 208 nM (EC50).

In turn, `Cc1csc(Nc2ncccc2OCc2cccc3cccnc23)n1` came in with a concentration giving a half-maximal response (EC50) of 1700 nM.

In turn, `CC(C)Cc1csc(Nc2ncc(Br)cc2OCc2ccccc2)n1` displayed an EC50 of 356 nM.

`CCc1csc(Nc2ncc(Br)cc2OCc2ccccc2)n1` registered an EC50 of 562 nM.

Tested on in a further data set: not listed separately
Put plainly: Terminal plasma concentration in C57BL/6J mouse at 50 mg/kg, po administered 30 mins measured after 2.5 hrs. Type of data set: ADME, organism-based. Details: dose 50 mg/kg, route oral. To be noted: read-out: Cp(T).
Consider `CC(C)c1csc(Nc2ncc(SCCn3ccnc3)cc2OCc2ccccc2)n1`, for which the concentration at 2.5 h was determined as 4500 ng/mL.
